# Data published in US20240294572A1, “Antimicrobial Peptides” (priority 2021, published 2024).
# Non-standard residues stand in square brackets, D forms with d. Residues, ends and D or L forms follow the SMILES beside them. *: point of attachment. Decanoyl = CCCCCCCCCC(=O)*
# Experiments:
# [1] = target: T1, Apolipoprotein A-I (Q00623) (Mus musculus, UniProt Q00623); assay: Mass spectrometry of mouse plasma proteins bound to bead-immobilized peptide; assay type: binding; conditions: intensity bound to L-form / D-form of C10-KR8
# T1 construct: incubated with 5% mouse plasma; from tissue; host or cells: mouse plasma (5%)
# T1 sequence (Q00623 19-264): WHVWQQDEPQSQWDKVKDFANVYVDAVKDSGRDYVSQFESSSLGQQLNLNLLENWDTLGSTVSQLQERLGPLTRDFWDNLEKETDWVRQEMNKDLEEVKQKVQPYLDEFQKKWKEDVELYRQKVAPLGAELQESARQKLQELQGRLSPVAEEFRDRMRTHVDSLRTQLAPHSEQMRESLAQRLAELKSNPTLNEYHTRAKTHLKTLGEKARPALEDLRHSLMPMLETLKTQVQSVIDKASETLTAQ
# Protocol: Dynabeads M-370 amine (2×10^9 beads/mL, 50 μL; Thermo Fisher Scientific) were washed 3 times in sterile PBS (1 mL; GIBCO) and reacted with a bifunctional SM(PEG)4 cross-linker (5 mg/mL in DMSO) containing N-hydroxysuccinimide (NHS) ester and maleimide functional groups. A stable covalent bond between the amino group of beads and the NHS ester of the cross-linker was formed in PBS at pH 7.2 at room temperature for 24 hours with shaking at 80 rpm. The beads were then washed six times with PBS to remove nonreacted cross-linker. Next, peptide C10-KR8 (with a cysteine at the N-terminus) at 5 mg/mL was reacted with the free maleimide group in PBS for 24 hours at room temperature with shaking at 80 rpm. Another round of washing was conducted to remove the nonreacted peptides. Both the L-and D-forms of the peptide were coupled in the same manner. A portion of the beads without peptide coupling was saved as a control.
# For serum binding experiments, the beads were resuspended in 500 μL of PBS; 200-μL aliquots of the coated and control dynabead were incubated with 5% mouse plasma for 18 hours at 37° C. After binding, the beads were washed six times with PBS to remove unbound proteins. Finally, the beads were suspended in 50 μL of PBS for mass spectrophotometric analysis to identify peptide-binding partners.
# The samples were reduced by 10 mM dithiothreitol (DTT) and incubated for 30 minutes at 56° C. and back to room temperature. A final concentration of 50 mM iodoacetamide was added to alkylate free cysteines followed by further incubation for 20 min in the dark. Bound proteins were enzymatically digested by trypsin (4 μL of 0.5 μg/mL) overnight. A 60 […] portion was transferred to a new Eppendorf® tube and dried for 2 hours. The samples were then dissolved in 20 μL of 2% acetonitrile with 0.1% formic acid before being loaded to Q-tip columns (Pepclean, C18 spin column). Column was activated by pipetting in and out (4× times), 10 μL of 70% acetonitrile with 0.1% formic acid, and equilibrating with the same volume of 2% acetonitrile with 0.1% formic acid. Binding of the samples was done by mixing more than 10 × times, followed by washing in the same buffer (2% acetonitrile with 0.1% formic acid). The bound peptides were then eluted with 20 μL of 70% acetonitrile with 0.1% formic acid. Samples were subjected to LC-MS analysis after being suspended in the desired buffer.
# Extracted peptides were resuspended in 2% acetonitrile (ACN) and 0.1% formic acid (FA) and loaded onto trap column Acclaim™ PepMap™ 100 75 μm×2 cm C18 LC Columns (Thermo Scientific) at a flow rate of 4 μL/minute. These were then separated with a Thermo RSLC UltiMate™ 3000 on a Thermo Easy-Spray PepMap™ M RSLC C18 75 μm×50 cm C-18 2 μm column (Thermo Scientific) with a step gradient of 4-25% solvent B (0.1% FA in 80% ACN) from 10 to 37 minutes and 25-45% solvent B for 37-46 minutes at 300 nL/min and 50° C. with a 70 minute total run time. Eluted peptides were analyzed by a Thermo Orbitrap Fusion™ Lumos™ Tribrid™ (Thermo Scientific) mass spectrometer in a data dependent acquisition mode. A survey full scan MS (from m/z 350-1800) was acquired in the orbitrap with a resolution of 120000. The AGC target for MS1 was set as 4×10^5 and the ion filling time set as 100 ms. The most intense ions with charge state 2-6 were isolated in 3 second cycle and fragmented using HCD fragmentation with 40% normalized collision energy and detected at a mass resolution of 30000 at 200 m/z. The AGC target for MS/MS was set as 5×10^4 and ion filling time set 60 ms dynamic exclusion was set for 30 seconds with a 10 ppm mass window. Protein identification was performed by searching MS/MS data against the Swiss-Prot mouse protein database. The search was set up for full tryptic peptides with a maximum of two missed cleavage sites. Acetylation of protein N-terminus and oxidized methionine were included as variable modifications, and carbamidomethylation of cysteine was set as fixed modification. […]
# [2] = system: S. aureus USA300 transposon mutant SAUSA300_1515; assay type: cell-based
# Protocol: (§1) The antimicrobial susceptibility of over 20 MRSA transposon mutants were also tested, based on a transposon library screening, in the presence of LL-37 peptides (Golla, et al. (2020) ACS Infect. Dis., 6:1866-1881). This Nebraska Transposon Mutant Library of S. aureus USA300 consists of 1920 mutants, each with one nonessential gene disabled due to a transposon insertion (Fey, et al. (2013) mBio 4:e00537-12). The correct insertion of the transposon to each Staph mutant had been verified (Golla, et al. (2020) ACS Infect. Dis., 6:1866-1881). Antimicrobial susceptibility to the new peptide C10-KR8d was evaluated in the same manner as MIC assays. Susceptible strains could be inhibited at a peptide concentration lower than the MIC against the wild strain S. aureus JE2.
# [3] = system: S. aureus USA300 transposon mutant SAUSA300_1228 (thrB); assay type: cell-based
# Protocol: as §1
# [4] = system: S. aureus USA300 transposon mutant SAUSA300_0647 (vraF); assay type: cell-based
# Protocol: as §1
# [5] = system: S. aureus USA300 transposon mutant SAUSA300_1036; assay type: cell-based
# Protocol: as §1
# [6] = system: S. aureus USA300 transposon mutant SAUSA300_1962; assay type: cell-based
# Protocol: as §1
# [7] = system: S. aureus JE2 (SAUSA300, wild type); assay type: cell-based; conditions: JE2 (SA, wild type)
# Protocol: as §1
Structure (SMILES),"L/D Ratio, Apolipoprotein A-I [1]","MIC ([2]; mutant SAUSA300_1515, 50% TSB)",Susceptible? ([2]; mutant SAUSA300_1515 versus WT),Susceptible? ([3]; mutant SAUSA300_1228 thrB versus WT),"MIC ([3]; mutant SAUSA300_1228 thrB, 50% TSB)",Susceptible? ([4]; mutant SAUSA300_0647 vraF versus WT),"MIC ([4]; mutant SAUSA300_0647 vraF, 50% TSB)","MIC ([5]; mutant SAUSA300_1036, 50% TSB)",Susceptible? ([5]; mutant SAUSA300_1036 versus WT),"MIC ([6]; mutant SAUSA300_1962, 50% TSB)",Susceptible? ([6]; mutant SAUSA300_1962 versus WT),MIC [7]
CCCCCCCCCC(=O)N[C@@H](CCCCN)C(=O)N[C@@H](CCCNC(=N)N)C(=O)N[C@H](C(=O)N[C@@H](Cc1c[nH]c2ccccc12)C(=O)N[C@@H](CCC(N)=O)C(=O)N[C@@H](CCCNC(=N)N)C(=O)N[C@H](C(=O)N[C@@H](CCCCN)C(N)=O)[C@@H](C)CC)[C@@H](C)CC [Peptide C10-KR8] (Decanoyl-KRIWQRIK-NH2),3.54,,,,,,,,,,,
CCCCCCCCCC(=O)N[C@H](CCCCN)C(=O)N[C@H](CCCNC(=N)N)C(=O)N[C@@H](C(=O)N[C@H](Cc1c[nH]c2ccccc12)C(=O)N[C@H](CCC(N)=O)C(=O)N[C@H](CCCNC(=N)N)C(=O)N[C@@H](C(=O)N[C@H](CCCCN)C(N)=O)[C@H](C)CC)[C@H](C)CC [Peptide C10-KR8d] (Decanoyl-[dK][dR][dI][dW][dQ][dR][dI][dK]-NH2),,1.6 to 3.1 µM,Yes,Yes,1.6 to 3.1 µM,Yes,1.6 to 3.1 µM,1.6 to 3.1 µM,Yes,1.6 to 3.1 µM,Yes,3.1 µM
